Data as given in PMC7281349, “Anti-Inflammatory and Protein Tyrosine Phosphatase 1B Inhibitory Metabolites from the Antarctic Marine-Derived Fungal Strain Penicillium glabrum SF-7123” (Marine Drugs, 2020).

Key:
[1] = system: LPS-stimulated BV2 microglial cells; experiment: NO production (nitrite, Griess reaction) in LPS-stimulated BV2 microglial cells; assay type: cell-based, murine; details: for Effect on alteration of NO production: 80.0 μM; for IC50: Mus musculus, BV-2, mean ± SD of triplicate experiments, read-out: NO Inhibitory Effects, BV2 Cells (IC50)
From the text: (§1) LPS is a major cell wall component of Gram-negative bacteria. LPS is an intensive stimulator of macrophages and microglia, and thus treatment of these cells with LPS is frequently employed in research related to the inflammatory phenomenon. In the current study, all the isolated compounds (1–5) were investigated for their anti-neuroinflammatory and anti-inflammatory effects by examining their effects on the overproduction of NO and PGE2 in LPS-stimulated BV2 microglia and RAW264.7 macrophage cells. LPS stimulation increased the production of NO and PGE2 in both cell lines. […] Thus, this compound was selected to further examine the anti-inflammatory effect and to reveal its underlying mechanisms. […] Moreover, compound 2 attenuated the protein expression of iNOS and COX-2 in a dose-dependent manner in LPS-stimulated BV2 cells (Figure 3A).
(§2) RAW264.7 and BV2 cells were maintained at 5 × 10^5 cells/mL in Dulbecco’s modified Eagle’s medium (DMEM) containing 10% fetal bovine serum (FBS), penicillin G (100 U/mL), streptomycin (100 mg/L), and L-glutamine (2 mM) and incubated at 37 °C in a humidified atmosphere containing 5% CO2. DMEM, FBS, and other tissue culture reagents were purchased from Gibco BRL Co. Cell viability was evaluated by the MTT assay as described in our previous report.
To determine the nitrite concentration in the medium as an indicator of NO production, the Griess reaction was carried out as described in our previous report.

[2] = system: LPS-stimulated BV2 microglial cells; experiment: PGE2 production in LPS-stimulated BV2 cells; assay type: cell-based, murine; details: Mus musculus, BV-2, mean ± SD of triplicate experiments, read-out: PGE2 Inhibitory Effects, BV2 Cells (IC50)
From the text: as §1, §2
The level of PGE2 present in each sample was determined using a commercially available kit from R&D Systems (Minneapolis, MN, USA); the details of this assay were described previously. Three independent assays were performed according to the manufacturer’s instructions.

[3] = target: T1, PTP1B (human, recombinant) (Homo sapiens, UniProt P18031); experiment: PTP1B enzyme assay with pNPP substrate; assay type: biochemical; details: for inhibition at 50 µM: 50 μM compound, read-out: Inhibitory Effects on PTP1B, inhibition percentage at 50 μM; for inhibition at 50 µM / IC50: pNPP substrate; for Mode of PTP1B inhibition (Lineweaver–Burk plot): pNPP 0.25-2.0 mM, Km and Vmax analysis; for IC50: mean ± SD of triplicate experiments, read-out: Inhibitory Effects on PTP1B (IC50)
T1 construct: purchased BIOMOL Research Laboratories, Inc
T1 sequence (P18031 1-435): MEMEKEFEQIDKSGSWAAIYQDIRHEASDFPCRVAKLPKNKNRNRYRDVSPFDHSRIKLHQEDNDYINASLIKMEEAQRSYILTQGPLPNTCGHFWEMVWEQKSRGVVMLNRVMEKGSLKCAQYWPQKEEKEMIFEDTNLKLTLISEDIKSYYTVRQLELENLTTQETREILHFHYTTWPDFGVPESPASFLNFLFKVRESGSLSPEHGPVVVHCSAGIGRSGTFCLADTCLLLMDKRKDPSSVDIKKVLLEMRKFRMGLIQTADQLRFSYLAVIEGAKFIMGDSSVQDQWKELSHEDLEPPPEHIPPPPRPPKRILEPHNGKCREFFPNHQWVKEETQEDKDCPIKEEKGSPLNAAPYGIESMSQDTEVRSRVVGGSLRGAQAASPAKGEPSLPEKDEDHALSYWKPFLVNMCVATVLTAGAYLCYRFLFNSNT
Protocol: In addition to the investigation of the anti-inflammatory and anti-neuroinflammatory effects of the isolated metabolites in cellular models, this study attempted to assess the inhibitory effect of the isolated compounds against PTP1B activity.
PTP1B (human, recombinant) used in the current study was purchased from BIOMOL Research Laboratories, Inc. PTP1B enzyme activity was determined using 2 mM of pNPP as a substrate in 50 mM citrate buffer solution (pH 6.0, 0.1 M NaCl, 1 mM EDTA, and 1 mM dithiothreitol). The reaction mixture was incubated at 30 °C for 30 min, and the reaction was terminated by the addition of 1 N NaOH. The amount of p-nitrophenol produced by the enzyme was estimated by measuring the increase in absorbance at 405 nm. The nonenzymatic hydrolysis of 2 mM pNPP was corrected by measuring the increase in absorbance at 405 nm in the absence of PTP1B [31]. The kinetic analysis involved the following: the assays were performed using a reaction mixture that contained different concentrations of pNPP (0.25 mM, 0.5 mM, 1.0 mM, and 2.0 mM) as a PTP1B substrate in the absence or presence of compounds 4 and 5. The Michaelis–Menten constant (Km) and maximum velocity (Vmax) of PTP1B were determined by the Lineweaver–Burk plot using the GraphPad Prism® 4 program (GraphPad Software Inc., San Diego, CA, USA).

[4] = system: IL-1β, TNF-α, IL-6, IL-12 mRNA in LPS-stimulated BV2 cells; experiment: qRT-PCR of pro-inflammatory cytokine mRNA in LPS-stimulated BV2 cells; assay type: cell-based, murine; details: 3 h pre-treatment, LPS 1 µg/mL for 12 h
[5] = system: iNOS and COX-2 protein expression in LPS-stimulated BV2 cells; experiment: Western blot of iNOS and COX-2 in LPS-stimulated BV2 cells; assay type: cell-based, murine; details: 1.0, 2.0, 4.0 μM, dose-dependent, LPS 1 μg/mL 24 h
Protocol: Cells were pre-treated with compound 2 (1.0, 2.0, and 4.0 μM) for 3 h and stimulated with LPS (1 μg/mL) for 24 h. The representative blots of three independent analyses for iNOS and COX-2 expression are shown.
(§3) Western blot analysis was carried out according to our previous report. Briefly, cells were harvested by centrifugation at 200 g for 3 min, followed by a washing step with RIPA lysis buffer (25 mM Tris-HCl buffer (pH 7.6), 150 mM NaCl, 1% NP-40, 1% sodium deoxycholate, and 0.1% SDS). Primary antibodies (COX-2: sc-1745; iNOS: sc-650; IкB-α: sc-371; p-IкB-α: sc-8404; p50: sc-7178; and p65: sc-8008) were purchased from Santa Cruz Biotechnology, and secondary antibodies (mouse: ap124p; goat: ap106p; and rabbit: ap132p) were purchased from Millipore.

[6] = system: NF-κB pathway in LPS-stimulated BV2 cells; experiment: NF-κB pathway activation (western blot, DNA-binding ELISA) in LPS-stimulated BV2 cells; assay type: cell-based, murine
Protocol: After pre-treatment with compound 2 (1.0, 2.0, and 4.0 μM) for 3 h, the cells were stimulated with LPS for 1 h. (A–F) Proteins were obtained, and specific anti-IκB-α, anti-p- IκB-α, anti-p65, and anti-p50 antibodies were employed for western blot analysis. Representative blots of three independent experiments are shown. Band intensity was quantified by densitometry and normalized to β-actin for the cytoplasmic fraction and to proliferating cell nuclear antigen (PCNA) for the nuclear fraction. (G, H) NF-κB binding activity in the nuclear fraction was determined using an NF-κB ELISA kit by Active Motif (* p < 0.05; ** p < 0.01; *** p < 0.001) and then compared to that of the LPS-treated group.
Western blot analysis was carried out according to our previous report. Briefly, cells were harvested by centrifugation at 200 g for 3 min, followed by a washing step with RIPA lysis buffer (25 mM Tris-HCl buffer (pH 7.6), 150 mM NaCl, 1% NP-40, 1% sodium deoxycholate, and 0.1% SDS). […]
The DNA-binding activity of NF-κB in the nuclear extracts was measured using the TransAM® kit (Active Motif, Carlsbad, CA, USA); three independent assays for each sample were conducted according to the manufacturer’s instructions.

[7] = system: MAPK pathways (ERK, JNK, p38 MAPK) in LPS-stimulated BV2 cells; experiment: MAPK phosphorylation (western blot) in LPS-stimulated BV2 cells; assay type: cell-based, murine; details: 1.0, 2.0, 4.0 μM pre-treatment 3 h, LPS 1 h
Protocol: After pre-treatment with compound 2 (1.0, 2.0, and 4.0 μM) for 3 h, the cells were stimulated with LPS for 1 h. Western blot analysis was performed to determine the phosphorylated levels of extracellular signal-regulated kinases (ERK) (p-ERK), c-Jun N-terminal kinases (JNK) (p-JNK), and p38 MAPK (p-p38 MAPK). Representative blots of three independent experiments are shown. Band intensity was quantified by densitometry and normalized to β-actin. * p < 0.05; *** p < 0.001 as compared to the LPS-treated group.
as §3

[8] = system: PC12 pheochromocytoma cells; design: method as in doi:10.1002/1099-0690(200105)2001:10<1963::AID-EJOC1963>3.0.CO; details: cited from earlier work
endothelin binding = details: cited from earlier work
HIV-1-integrase = details: cited from earlier work

IC50 [1] [µM]	IC50 [2] [µM]	inhibition at 50 µM [3] [%]	SMILES	Effect on alteration of NO production [1]	mRNA over-expression of IL-1β, TNF-α, IL-6 and IL-12 [4]	Protein expression of iNOS and COX-2 [5]	Activation of the NF-κB pathway (IκB-α phosphorylation/degradation, p50/p65 nuclear translocation) ([6]; 1.0, 2.0, 4.0 μM pre-treatment 3 h, LPS 1 h)	DNA binding activity of the p65 subunit ([6]; nuclear fraction, NF-κB ELISA kit)	Increased phosphorylation levels of ERK and JNK MAPKs [7]	LPS-induced p38 MAPK phosphorylation [7]	Neurite outgrowth in PC12 pheochromocytoma cells [8]	Endothelin binding inhibition (endothelin binding)	Mode of PTP1B inhibition (Lineweaver–Burk plot) [3]	IC50 [3] [µM]	HIV-1-integrase inhibition (HIV-1-integrase)
> 80	> 80	45.7	COc1cc2c(cc1O)OCC1=C2O[C@@H](C)CC1=O [Compound 1, 9-O-methylneuchromenin]	did not significantly affect	–	–	–	–	–	–	–	–	–	–	–
2.7 ± 0.1	3.2 ± 0.2	37.8	C[C@H]1CC(=O)C2=C(O1)c1cc(O)c(O)cc1OC2 [Compound 2, neuchromenin]	–	effectively decreased	attenuated	suppressed	decreased	unchanged	inhibited	induced neurite outgrowth	–	–	–	–
> 80	> 80	13.7	COC(=O)c1cc(O)cc(OC)c1Oc1cc(C)cc(O)c1C(=O)O [Compound 3, asterric acid]	did not significantly affect	–	–	–	–	–	–	–	endothelin binding inhibitor	–	–	–
28.1 ± 1.4	25.2 ± 1.3	–	CC1=Cc2oc3cc(O)c(O)cc3c(=O)c2CO1 [Compound 4, myxotrichin C]	–	–	–	–	–	–	–	–	–	noncompetitive inhibitor	19.2 ± 1	–

SMILES	IC50 [1] [µM]	IC50 [2] [µM]	inhibition at 50 µM [3] [%]	Effect on alteration of NO production [1]	mRNA over-expression of IL-1β, TNF-α, IL-6 and IL-12 [4]	Protein expression of iNOS and COX-2 [5]	Activation of the NF-κB pathway (IκB-α phosphorylation/degradation, p50/p65 nuclear translocation) ([6]; 1.0, 2.0, 4.0 μM pre-treatment 3 h, LPS 1 h)	DNA binding activity of the p65 subunit ([6]; nuclear fraction, NF-κB ELISA kit)	Increased phosphorylation levels of ERK and JNK MAPKs [7]	LPS-induced p38 MAPK phosphorylation [7]	Neurite outgrowth in PC12 pheochromocytoma cells [8]	Endothelin binding inhibition (endothelin binding)	Mode of PTP1B inhibition (Lineweaver–Burk plot) [3]	IC50 [3] [µM]	HIV-1-integrase inhibition (HIV-1-integrase)
C/C=C/c1cc(=O)c(C(=O)c2c(OC)cc(OC)cc2C(=O)OC)co1 [Compound 5, deoxyfunicone]	10.6 ± 0.5	32.3 ± 1.6	–	–	–	–	–	–	–	–	–	–	competitive	24.3 ± 1.2	HIV-1-integrase inhibitor
